# Read-outs that look alike come from different tables or passages of the source.
# Columns and labels:
# [1] = tested on: newly transformed schistosomula (NTS); assay: NTS viability phenotypic screening, 72 h; settings: for IC50: Schistosoma mansoni, read-out: IC50 (NTS viability)
# Protocol: (§4) For NTS and adult worms, transparent flat-bottom 96- and 24-well plates were used, respectively (Sarstedt, Switzerland). For juvenile worms, 48-well plates were used with 3–6 worms per plate and RPMI medium with 5% FCS and 1% penicillin/streptomycin. Compounds were initially tested at 20 and 10 μM in triplicate on NTS and repeated once; each well contained 30–40 NTS. Phenotypic reference points such as motility, morphology, and granularity were used to score incubated parasites’ overall viability (scores from 0 to 3). […] Identified hits from the NTS screening were tested on adult worms. […] The experiment was conducted in duplicate and repeated; standard deviations were calculated from two wells. […] For all in vitro assays, negative controls (DMSO at the highest tested concentration) were included.
# [2] = tested on: human recombinant LSD1-CoREST enzymatic complex; settings: Table S1, cited from earlier work
# adult worms [3] = assay: Adult worm viability phenotypic assay, 72 h; settings: Schistosoma mansoni, read-out: IC50 (adult worm viability)
# Protocol: The life cycle is maintained at the Swiss TPH as described previously. Cercariae were obtained from infected snails by exposing them to a strong light source for 3–4 h in pond water.
# as §4
# [4] = MTT cytotoxicity in MRC-5 cells; format: cell-based; settings: human, MRC-5 lung diploid fibroblast cells; for viability at 72 h, 5 µM / viability at 72 h, 10 µM / viability at 72 h, 25 µM / viability at 72 h, 50 µM: read-out: percentage of viability, 72 h; for IC50 at 72 h: read-out: IC50 (cell viability)
# Protocol: (§1) The MTT method was used to evaluate cell viability after 72 h of treatment.
# (§2) Human commercial lung diploid fibroblasts (MRC-5), and diploid retinal epithelium cells (RPE) were obtained from the American Type Culture Collection (ATCC) and kindly provided by Dr Francesca Degrassi (CNR IBPM) and maintained in minimal essential medium or DMEM-F12 medium supplemented with fetal calf serum, antibiotics, and nonessential amino acids. Cells were grown at 37 °C, in a humidified atmosphere, with 5% CO2. For experiments, cells were seeded in 200 μL of complete in each well of a 96-well microtiter plate. After 24 h, compounds were added at 5, 10, 25, and 50 μM for 72 h in sextuplicate. MTT was added (0.5 mg/mL), incubated for 4 h at 37 °C, and dissolved in 200 μL of isopropyl alcohol. Absorbance was measured at 570 nm (ELISA reader, DASIT), and cell viability was calculated as viability=(ODoftreatedcells/ODofcontrolcells)×100
# adult worms [5] = assay: Pairing and egg laying of adult worms; format: cell-based, Schistosoma mansoni; settings: for eggs' number: 20 μM
# Protocol: Selected compounds 2, 15, 18, and 19 were tested on adult worms to evaluate their effects on pairing and egg laying.
# NTS = assay: Speed-of-action assay in NTS; format: cell-based, Schistosoma mansoni; settings: for Percentage of effect: NTS; for IC50: Schistosoma mansoni, read-out: IC50 (speed of action, NTS)
# Description: (§3) To better characterize a selection of our LSD1i in vitro, we assessed the onset of their action, defined as the time required for an observable antischistosomal effect. […] For detailed percentages of activity at each time point, refer to the Supporting Information (Tables S2 and S3 in Supporting Information).
# [6] = tested on: S. mansoni juvenile forms; assay: Speed-of-action assay in juvenile forms; format: cell-based, Schistosoma mansoni; settings: for IC50: Schistosoma mansoni, read-out: IC50 (speed of action, juvenile forms); for Percentage of effect: juvenile forms
# Description: as §3
# [7] = MTT cytotoxicity in RPE cells; format: cell-based; settings: human, retinal pigment epithelial (RPE) cells; for viability at 72 h, 5 µM / viability at 72 h, 10 µM / viability at 72 h, 25 µM / viability at 72 h, 50 µM: read-out: percentage of viability, 72 h; for IC50 at 72 h: read-out: IC50 (cell viability)
# Protocol: as §1, §2
# [8] = ref 2 (SI: Fioravanti et al., ChemMedChem 2020)
# [9] = ref 3 (SI: Fioravanti et al., J Enzyme Inhib Med Chem 2022)
# [10] = ref 4 (SI: Rodriguez et al., MedChemComm 2015)
structure (smiles),measurement,setting,value
NC1CC1c1ccc(NC(=O)c2ccc(O)c3ncccc23)cc1 (stereo not drawn) [Compound 1],"Percentage of reduction of NTS viability, 72 h",[1]; 10 μM,37.9 ± 0.0%
same,"Percentage of reduction of NTS viability, 72 h",[1]; 20 μM,45.8 ± 4.2%
same,IC50,[1],> 20 µM
same,IC50,"[2]; ref 1 (SI: Rotili et al., J Med Chem 2014)",< 1 µM
NC1CC1c1ccc(NC(=O)c2ccc(-c3ccccc3)cc2)cc1 (stereo not drawn) [Compound 2],IC50,adult worms [3],> 10 µM
same,"viability at 72 h, 5 µM",[4],29 ± 2%
same,"viability at 72 h, 10 µM",[4],26 ± 3%
same,"viability at 72 h, 25 µM",[4],13 ± 3%
same,"viability at 72 h, 50 µM",[4],10 ± 2%
same,IC50 at 72 h,[4],5.9 µM
same,eggs' number,adult worms [5]; 4 h,0
same,eggs' number,adult worms [5]; 8 h,0
same,eggs' number,adult worms [5]; 24 h,0
same,eggs' number,adult worms [5]; 48 h,0
same,eggs' number,adult worms [5]; 72 h,6
same,effect on worm pairing,adult worms [5]; adult worms,no impact on worm pairing
same,Percentage of effect,"NTS; 4 h, 10 μM",30.77%
same,Percentage of effect,"NTS; 4 h, 20 μM",38.46%
same,Percentage of effect,"NTS; 24 h, 10 μM",78.57%
same,Percentage of effect,"NTS; 24 h, 20 μM",82.14%
same,Percentage of effect,"NTS; 48 h, 10 μM",87.76%
same,Percentage of effect,"NTS; 48 h, 20 μM",93.88%
same,Percentage of effect,"NTS; 72 h, 10 μM",89.80%
same,Percentage of effect,"NTS; 72 h, 20 μM",100%
same,IC50,NTS; 4 h,> 20 µM
same,IC50,NTS; 24 h,5 µM
same,IC50,NTS; 48 h,4 µM
same,IC50,NTS; 72 h,2.3 µM
same,"Percentage of reduction of NTS viability, 72 h",[1]; 0.1 μM,43.7 ± 2.1%
same,"Percentage of reduction of NTS viability, 72 h",[1]; 1 μM,56.9 ± 0.9%
same,"Percentage of reduction of NTS viability, 72 h",[1]; 10 μM,98 ± 1.0%
same,"Percentage of reduction of NTS viability, 72 h",[1]; 20 μM,100 ± 0.0%
same,IC50,[1],0.26 µM
same,IC50,[2]; [8],0.05 ± 0.01 µM
same,IC50,[6]; 4 h,> 20 µM
same,IC50,[6]; 24 h,16.2 µM
same,IC50,[6]; 48 h,> 20 µM
same,IC50,[6]; 72 h,5.9 µM
same,Percentage of effect,"[6]; 4 h, 1 μM",20%
same,Percentage of effect,"[6]; 4 h, 10 μM",23.33%
same,Percentage of effect,"[6]; 4 h, 20 μM",43.64%
same,Percentage of effect,"[6]; 24 h, 1 μM",24.14%
same,Percentage of effect,"[6]; 24 h, 10 μM",37.93%
same,Percentage of effect,"[6]; 24 h, 20 μM",57.69%
same,Percentage of effect,"[6]; 48 h, 1 μM",32.69%
same,Percentage of effect,"[6]; 48 h, 10 μM",36.45%
same,Percentage of effect,"[6]; 48 h, 20 μM",56.25%
same,Percentage of effect,"[6]; 72 h, 1 μM",39%
same,Percentage of effect,"[6]; 72 h, 10 μM",39.11%
same,Percentage of effect,"[6]; 72 h, 20 μM",70.83%
same,"viability at 72 h, 5 µM",[7],95 ± 9%
same,"viability at 72 h, 10 µM",[7],82 ± 11%
same,"viability at 72 h, 25 µM",[7],87 ± 39%
same,"viability at 72 h, 50 µM",[7],49 ± 9%
same,IC50 at 72 h,[7],68.9 µM
NC1CC1c1ccc(NC(=O)c2ccc(-c3ccco3)cc2)cc1 (stereo not drawn) [Compound 3],"Percentage of reduction of NTS viability, 72 h",[1]; 10 μM,36.2 ± 0.9%
same,"Percentage of reduction of NTS viability, 72 h",[1]; 20 μM,37.50 ± 0.0%
same,IC50,[1],> 20 µM
same,IC50,[2]; [9],2 µM
NC1CC1c1ccc(NC(=O)c2ccc(-c3ccsc3)cc2)cc1 (stereo not drawn) [Compound 4],IC50,adult worms [3],> 10 µM
same,"Percentage of reduction of NTS viability, 72 h",[1]; 10 μM,43.1 ± 0.9%
same,"Percentage of reduction of NTS viability, 72 h",[1]; 20 μM,79.17 ± 0.0%
same,IC50,[1],> 10 µM
same,IC50,[2]; [9],0.34 ± 0.11 µM
CN1CCN(c2cc(C(=O)Nc3ccc(C4CC4N)cc3)ccc2NC(=O)OCc2ccccc2)CC1 (stereo not drawn) [Compound 5],IC50,adult worms [3],2.23 µM
same,"viability at 72 h, 5 µM",[4],75 ± 7%
same,"viability at 72 h, 10 µM",[4],59 ± 5%
same,"viability at 72 h, 25 µM",[4],58 ± 2%
same,"viability at 72 h, 50 µM",[4],39 ± 4%
same,IC50 at 72 h,[4],24.3 µM
same,"Percentage of reduction of NTS viability, 72 h",[1]; 1 μM,18.0 ± 1.0%
same,"Percentage of reduction of NTS viability, 72 h",[1]; 10 μM,100 ± 0.0%
same,"Percentage of reduction of NTS viability, 72 h",[1]; 20 μM,100 ± 0.0%
same,IC50,[1],1.35 µM
same,IC50,[2]; [8],0.09 ± 0.01 µM
same,"viability at 72 h, 5 µM",[7],63 ± 33%
same,"viability at 72 h, 10 µM",[7],72 ± 18%
same,"viability at 72 h, 25 µM",[7],82 ± 11%
same,"viability at 72 h, 50 µM",[7],57 ± 10%
same,IC50 at 72 h,[7],55.8 µM
NC1CC1c1ccc(NC(=O)c2ccn(C(=O)OCc3ccccc3)c2)cc1 (stereo not drawn) [Compound 6],IC50,adult worms [3],> 20 µM
same,"Percentage of reduction of NTS viability, 72 h",[1]; 10 μM,40.0 ± 2.0%
same,"Percentage of reduction of NTS viability, 72 h",[1]; 20 μM,100 ± 0.0%
same,IC50,[1],> 10 µM
same,IC50,[2]; [10],0.05 ± 0.004 µM
NC1CC1c1ccc(NC(=O)c2cc3ccccc3n2CC(=O)Nc2ccccc2)cc1 (stereo not drawn) [Compound 7],IC50,adult worms [3],> 20 µM
same,"Percentage of reduction of NTS viability, 72 h",[1]; 10 μM,37.9 ± 0.0%
same,"Percentage of reduction of NTS viability, 72 h",[1]; 20 μM,66.7 ± 4.2%
same,IC50,[1],> 10 µM
same,IC50,[2]; [10],0.09 ± 0.01 µM
